Patent US20240166690A1, “MULTI-TARGET CY[…] FOR OPIOID/NEUROPEPTIDE FF RECEPTORS, AND PREPARATION THEREFOR AND APPLICATION THEREOF” (SHANGHAI TIANCI LIFE SCIENCE DEVELOPMENT CO., LTD., priority 2021, published 2024)
Bridge positions count the residues as written; N and C are the ends. Square brackets hold non-standard residues; d marks the D form. Peptide text beside a SMILES is read from it. NMeF = CN[C@@H](Cc1ccccc1)C(=O)O; dOrn = NCCC[C@@H](N)C(=O)O

Key:
Mu-opioid receptor = biological target: T1, Mu-opioid receptor (Homo sapiens, UniProt P35372); test: cAMP functional experiment, Mu-opioid receptor (forskolin-induced cAMP accumulation); type: cell-based
T1 construct: expressed in transfected cells; host or cells: HEK293
Experimental: (§1) The agonistic activity of the cyclopeptide molecule of the present invention against Mu-opioid receptor, Delta-opioid receptor, Kappa-opioid receptor, NPFF1 receptor and NPFF2 receptor was evaluated by detecting the regulation of the cyclopeptide molecule of the present invention on the intracellular accumulation of cyclic adenosine monophosphate (cAMP) induced by Forskolin in HEK293 cells stably expressing these five receptors. The experimental method was: the cells were seeded in 24 well plates with 120000 cells per well, and were cultured for more than 20 hours. At the beginning of the experiment, the culture medium in the culture dish was suck out, and then 500 μL of preheated serum-free medium containing 1 mM of IBMX was added, the mixture was incubated at 37° C. for 10 minutes. Then each 10 μL of the drug to be tested and 10 μM of forskolin (final concentration) were added to each well. The mixture was incubated at 37° C. for 30 minutes. After incubation, all the liquid was suck out from the culture dish, 500 μL of 0.2 N hydrochloric acid was added to each well, the mixture was incubated at room temperature for 30 minutes to promote cell lysis. After lysis was complete, NaOH was added to neutralize the hydrochloric acid solution used for lysis. Then all the liquid was suck out from the culture dish into centrifuge tubes, the liquid was centrifuged at 12000 rpm for 2 minutes. 50 μL was taken to a clean centrifuge tube, 100 μL of 60 μg/μL PKA was added, and 100 μL of TE cAMP buffer was added to the blank control group (B). Another 50 μL of 0.5 μ Ci[^3H]cAMP was added to each of the above centrifuge tubes, the mixture was quickly mixed and incubated at 4° C. for more than 2 hours. After incubation, another 100 μL of activated carbon suspension was added to each tube, the mixture was vortex agitated evenly, placed in an ice bath for 1 minute, centrifuged at 5000 rpm for 4 minutes. 200 μL of supernatant after centrifugation in each tube was suck out to a 24 well plate, with an additional 700 μL of scintillator liquid added per well, then the 24 well plate was sealed with adhesive film, placed for 3 hours, then placed on the scintillation instrument for measurement.
(§2) The inhibitory effect of cAMP was represented by the percentage (% control) of drug inhibition of intracellular cAMP accumulation induced by Forskolin, wherein % control=(cAMP content when treated with Forskolin−cAMP content when Forskolin co-treated with the test drug)/(cAMP content when treated with Forskolin−cAMP content when treated with solvent). The related % control data was represented by mean±S.E.M. The dose-effect relationship of the drug was statistically analyzed using a nonlinear regression model, and the IC50 values of the multi-target cyclopeptide molecule on inhibition of Forskolin induced intracellular cAMP accumulation were calculated using the statistical software GraphPad Prism version 5.0.

Kappa-opioid receptor = biological target: T2, Kappa-opioid receptor (Homo sapiens, UniProt P41145); test: cAMP functional experiment, Kappa-opioid receptor (forskolin-induced cAMP accumulation); type: cell-based
T2 construct: expressed in transfected cells; host or cells: HEK293
Experimental: as §1, §2

NPFF2 receptor = biological target: T3, NPFF2 receptor (Homo sapiens, UniProt Q9Y5X5); test: cAMP functional experiment, NPFF2 receptor (forskolin-induced cAMP accumulation); type: cell-based
T3 construct: expressed in transfected cells; host or cells: HEK293
Experimental: as §1, §2

Kunming male mice [1] = test: Analgesic tolerance assay, oral injection for 8 consecutive days; type: in vivo; conditions: 8 consecutive days of oral injection, tail flick latency
Experimental: The analgesic tolerance experiment was conducted by orally injecting compounds 1 and 11 for 8 consecutive days, and then identifying the changes in the analgesic tail flick threshold from the first day to the eighth day through a photothermal tail flick experiment, thus evaluating the pharmacological activity of compounds 1 and 11 in the present invention in terms of analgesic tolerance.
21±2 g Kunming male mice were selected for the experiment, and the mice were eat freely. Generally, the basic pain threshold of mice was measured on the first day, followed by oral injection of compounds 1 and 11 for 8 consecutive days. The pain threshold at different time points was measured on the first day, and only the pain threshold at the highest analgesic point was measured on the following 7 days.
The experimental data was represented by tail flick time. The analgesic tolerance of drugs was compared using the tail flick latency at the maximum analgesic effect time point of different compounds. The tail flick latency data was represented by mean±S.E.M. The differences of analgesic effects of […] administration for eight days in mice were analyzed using one-way ANOVA (Tukey HSD test). *P<0.05, **P<0.01, and ***P<0.001 indicated a significant difference in analgesic effects compared to the injection of the drug on the first day.

Kunming male mice [2] = test: Open field test (locomotor activity); type: in vivo; conditions: oral, 1000 μg/kg of compound 1, 100 μg/kg of compound 11; for locomotor distance: within 150 minutes, saline 131.1±33.93 m
Experimental: Open field test was consisted of an uncapped 50×50×40 cm black organic glass box and a set of motion monitoring system. 21±2 g Kunming male mice were selected for the experiment. The room temperature was controlled between 22±1° C., otherwise, high or low temperatures would affect the movement of the mice. Before the experiment began, the box was wipped with alcohol to remove the odor inside and avoid the odor from affecting the locomotor activity of the next mouse. Before the experiment, the basic locomotor activity of the mouse in 30 minutes was recorded, followed by oral (p.o.) injection of physiological saline, 1000 μg/kg of compound 1, and 100 μg/kg of compound 11. The locomotor activity of mice within 150 minutes was recorded. The locomotor activity of mouse was represented by the total distance traveled, which is the total distance±S.E.M. The difference between the compound group and saline control group was statistically analyzed using one-way ANOVA (Bonferroni test). *P<0.05, **P<0.01, and ***P<0.001 indicated significance of difference between saline and compound.

mice = test: Naloxone withdrawal experiment (number of jumps); type: in vivo; conditions: for number of jumps: escalating doses every 8 hours, naloxone 10 mg/kg i.p., 30 minutes, saline 5; for withdrawal symptoms versus saline: oral, low and high doses
Experimental: The naloxone withdrawal test is a classic experiment for evaluating drug physiological addiction. The experimental method is based on Venetia Zachariou (2003). […] High doses of compound 11 were also administered with doses of 20, 40, 60, 80, 100, 100, and 100 μg/kg, respectively. Two hours after the last administration, mice were intraperitoneally injected with 10 mg/kg of naloxone. Then the mouse was immediately placed in an opaque barrel-shaped structure with an inner diameter of 9 cm and a height of 32 cm, and the number of jumps in mice within 30 minutes was recorded. The experimental results were represented by the number of jumps in mice, which is the number of jumps±S.E.M. The difference between the compound group and saline control group was statistically analyzed using one-way ANOVA (Bonferroni test). *P<0.05, **P<0.01, and ***P<0.001 indicated significance of differences between saline and compound.

T1 sequence (P35372 whole entry): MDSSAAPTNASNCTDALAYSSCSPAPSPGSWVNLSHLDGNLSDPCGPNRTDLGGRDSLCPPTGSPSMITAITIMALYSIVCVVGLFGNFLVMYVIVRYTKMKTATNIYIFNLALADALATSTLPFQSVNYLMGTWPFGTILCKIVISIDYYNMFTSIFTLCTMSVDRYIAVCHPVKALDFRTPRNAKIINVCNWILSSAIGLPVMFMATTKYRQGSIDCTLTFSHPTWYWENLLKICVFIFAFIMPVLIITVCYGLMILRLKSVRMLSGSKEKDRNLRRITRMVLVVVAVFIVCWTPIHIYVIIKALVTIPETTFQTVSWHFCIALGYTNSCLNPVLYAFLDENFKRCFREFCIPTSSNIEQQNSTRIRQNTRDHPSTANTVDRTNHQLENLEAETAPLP
T2 sequence (P41145 whole entry): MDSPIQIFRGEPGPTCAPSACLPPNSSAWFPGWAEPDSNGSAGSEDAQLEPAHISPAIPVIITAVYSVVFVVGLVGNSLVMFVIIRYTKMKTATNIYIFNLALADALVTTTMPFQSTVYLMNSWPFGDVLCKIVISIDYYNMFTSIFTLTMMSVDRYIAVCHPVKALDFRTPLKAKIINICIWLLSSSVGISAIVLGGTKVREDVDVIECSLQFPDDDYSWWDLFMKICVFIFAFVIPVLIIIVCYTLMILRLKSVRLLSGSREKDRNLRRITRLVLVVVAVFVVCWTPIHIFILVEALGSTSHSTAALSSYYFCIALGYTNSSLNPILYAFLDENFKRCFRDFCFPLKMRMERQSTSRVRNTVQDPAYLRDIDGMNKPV
T3 sequence (Q9Y5X5 whole entry): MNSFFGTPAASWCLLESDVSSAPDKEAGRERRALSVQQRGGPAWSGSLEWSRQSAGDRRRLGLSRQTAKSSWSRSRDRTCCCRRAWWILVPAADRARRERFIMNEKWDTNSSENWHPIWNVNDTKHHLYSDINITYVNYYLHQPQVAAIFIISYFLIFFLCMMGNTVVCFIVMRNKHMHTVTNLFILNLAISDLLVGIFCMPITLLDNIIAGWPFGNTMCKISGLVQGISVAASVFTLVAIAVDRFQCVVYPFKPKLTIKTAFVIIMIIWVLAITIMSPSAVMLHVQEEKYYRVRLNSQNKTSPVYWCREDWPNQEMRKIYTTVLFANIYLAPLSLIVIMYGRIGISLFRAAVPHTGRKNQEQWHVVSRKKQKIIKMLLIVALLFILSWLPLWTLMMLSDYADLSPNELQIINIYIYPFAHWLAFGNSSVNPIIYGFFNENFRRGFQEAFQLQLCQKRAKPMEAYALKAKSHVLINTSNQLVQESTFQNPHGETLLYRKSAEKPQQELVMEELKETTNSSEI

Structure (SMILES) | IC50 (Mu-opioid receptor) [nM] | IC50 (Kappa-opioid receptor) [nM] | IC50 (NPFF2 receptor) [nM] | analgesic tolerance (Kunming male mice [1]) | locomotor activity versus saline (Kunming male mice [2]) | locomotor distance (Kunming male mice [2]) [m] | number of jumps (mice; high-dose oral) | number of jumps (mice; low-dose oral) | withdrawal symptoms versus saline (mice)
CN1C(=O)CNC(=O)[C@H](NC(=O)[C@@H](N)Cc2ccc(O)cc2)CCCCNC(=O)C[C@@H](C(=O)N2CCC[C@H]2C(=O)N[C@@H](CCC(N)=O)C(=O)N[C@@H](CCCNC(=N)N)C(=O)N[C@@H](Cc2ccccc2)C(N)=O)NC(=O)[C@@H]1Cc1ccccc1 [Compound 1, Tyr-c[D-Lys-Gly-NMe-Phe-Asp]-Pro-Gln-Arg-Phe-NH2] (H-Y[dK]G[NMeF]DPQRF-NH2; lactam 2-5) | 93.5 | 39 | 49.8 | no analgesic tolerance observed | no change in the locomotor activity | 109.4±32.16 | 1 | 1 | did not show withdrawal symptoms
CN1C(=O)CNC(=O)[C@H](NC(=O)[C@@H](N)Cc2ccc(O)cc2)CCCNC(=O)CC[C@@H](C(=O)N2CCC[C@H]2C(=O)N[C@@H](CCC(N)=O)C(=O)N[C@@H](CCCNC(=N)N)C(=O)N[C@@H](Cc2ccccc2)C(N)=O)NC(=O)[C@@H]1Cc1ccccc1 [Compound 11, Tyr-c^[2,5][D-Orn-Gly-NMe-Phe-Glu]-Pro-Gln-Arg-Phe-NH2] (H-Y[dOrn]G[NMeF]EPQRF-NH2; lactam 2-5) | 84 | 109 | 572 | no analgesic tolerance observed | no change in the locomotor activity | 127.9±23.49 | 4 | 9 | did not show withdrawal symptoms
